Results reported in the supplement of paper PMC13207355.

Assays:
Settings in all cases: exposure time: 72 h
E31 [1] = patient-derived glioblastoma stem cells of proneural subtype; assay: phenotypic distance (Euclidean, principal components) from DMSO controls (arbitrary units); higher = stronger morphological change
FT3469 [2] = normal neural stem cell line; assay: as above
E28 [3] = patient-derived glioblastoma stem cells of classical subtype; assay: as above
E34 [4] = patient-derived glioblastoma stem cells of proneural subtype; assay: as above
E57 [5] = patient-derived glioblastoma stem cells of mesenchymal subtype; assay: as above
E13 [6] = patient-derived glioblastoma stem cells of classical subtype; assay: as above
E21 [7] = patient-derived glioblastoma stem cells of mesenchymal subtype; assay: as above
E31 [8] = assay: surviving fraction (nuclei count normalised to DMSO); higher = more cells surviving (less toxic)
FT3469 [9] = assay: as above
E28 [10] = assay: as above
E34 [11] = assay: as above
E57 [12] = assay: as above
E13 [13] = assay: as above
E21 [14] = assay: as above
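For phenotypic distance (Euclidean, principal components) from DMSO controls in this document: cell Painting imaging in 384-well plates, CellProfiler features reduced to at least 20 principal components, Euclidean distance versus same-plate DMSO vehicle wells (0.1% v/v), median over six images per well.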
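For surviving fraction (nuclei count normalised to DMSO) in this document: nuclei counted by high-content imaging of Hoechst-stained cells in laminin-coated 384-well plates, relative to 0.1% DMSO vehicle wells, with staurosporine as cell-death control.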

CC[C@@]1(O)C(=O)OCc2c1cc1n(c2=O)Cc2cc3c(CN(C)C)c(O)ccc3nc2-1 [Topotecan]
Settings | phenotypic distance | surviving fraction
E13 [6], 4.1 nM | 5.03 | –
E13 [6], 12.3 nM | 5.52 | –
E13 [6], 37 nM | 5.83 | –
E13 [6], 111.1 nM | 6.68 | –
E13 [6], 333.3 nM | 6.45 | –
E13 [6], 1000 nM | 6.68 | –
E13 [6], 3000 nM | 7.15 | –
E13 [13], 4.1 nM | – | 0.414
E13 [13], 12.3 nM | – | 0.381
E13 [13], 37 nM | – | 0.367
E13 [13], 111.1 nM | – | 0.279
E13 [13], 333.3 nM | – | 0.251
E13 [13], 1000 nM | – | 0.206
E13 [13], 3000 nM | – | 0.176
E21 [7], 4.1 nM | 4.95 | –
E21 [7], 12.3 nM | 5.78 | –
E21 [7], 37 nM | 6.25 | –
E21 [7], 111.1 nM | 6.93 | –
E21 [7], 333.3 nM | 5.67 | –
E21 [7], 1000 nM | 5.76 | –
E21 [7], 3000 nM | 5.07 | –
E21 [14], 4.1 nM | – | 0.191
E21 [14], 12.3 nM | – | 0.135
E21 [14], 37 nM | – | 0.114
E21 [14], 111.1 nM | – | 0.115
E21 [14], 333.3 nM | – | 0.13
E21 [14], 1000 nM | – | 0.113
E21 [14], 3000 nM | – | 0.104
E28 [3], 4.1 nM | 3.44 | –
E28 [3], 12.3 nM | 3.75 | –
E28 [3], 37 nM | 3.05 | –
E28 [3], 111.1 nM | 3.65 | –
E28 [3], 333.3 nM | 3.55 | –
E28 [3], 1000 nM | 4.27 | –
E28 [3], 3000 nM | 4.08 | –
E28 [10], 4.1 nM | – | 0.408
E28 [10], 12.3 nM | – | 0.351
E28 [10], 37 nM | – | 0.384
E28 [10], 111.1 nM | – | 0.347
E28 [10], 333.3 nM | – | 0.333
E28 [10], 1000 nM | – | 0.288
E28 [10], 3000 nM | – | 0.28
E31 [1], 4.1 nM | 3.31 | –
E31 [1], 12.3 nM | 3.53 | –
E31 [1], 37 nM | 2.95 | –
E31 [1], 111.1 nM | 3.38 | –
E31 [1], 333.3 nM | 3.17 | –
E31 [1], 1000 nM | 3.49 | –
E31 [1], 3000 nM | 3.68 | –
E31 [8], 4.1 nM | – | 0.173
E31 [8], 12.3 nM | – | 0.149
E31 [8], 37 nM | – | 0.188
E31 [8], 111.1 nM | – | 0.176
E31 [8], 333.3 nM | – | 0.249
E31 [8], 1000 nM | – | 0.17
E31 [8], 3000 nM | – | 0.213
E34 [4], 4.1 nM | 3.5 | –
E34 [4], 12.3 nM | 2.99 | –
E34 [4], 37 nM | 3.02 | –
E34 [4], 111.1 nM | 2.09 | –
E34 [4], 333.3 nM | 2.86 | –
E34 [4], 1000 nM | 4.13 | –
E34 [4], 3000 nM | 3.32 | –
E34 [11], 4.1 nM | – | 0.539
E34 [11], 12.3 nM | – | 0.576
E34 [11], 37 nM | – | 0.519
E34 [11], 111.1 nM | – | 0.55
E34 [11], 333.3 nM | – | 0.529
E34 [11], 1000 nM | – | 0.519
E34 [11], 3000 nM | – | 0.389
E57 [5], 4.1 nM | 6.01 | –
E57 [5], 12.3 nM | 7.66 | –
E57 [5], 37 nM | 7.47 | –
E57 [5], 111.1 nM | 7.5 | –
E57 [5], 333.3 nM | 7.56 | –
E57 [5], 1000 nM | 6.96 | –
E57 [5], 3000 nM | 7.64 | –
E57 [12], 4.1 nM | – | 0.321
E57 [12], 12.3 nM | – | 0.211
E57 [12], 37 nM | – | 0.175
E57 [12], 111.1 nM | – | 0.164
E57 [12], 333.3 nM | – | 0.145
E57 [12], 1000 nM | – | 0.129
E57 [12], 3000 nM | – | 0.109
FT3469 [2], 4.1 nM | 2.65 | –
FT3469 [2], 12.3 nM | 1.91 | –
FT3469 [2], 37 nM | 2.54 | –
FT3469 [2], 111.1 nM | 2.79 | –
FT3469 [2], 333.3 nM | 2.66 | –
FT3469 [2], 1000 nM | 3.43 | –
FT3469 [2], 3000 nM | 3.06 | –
FT3469 [9], 4.1 nM | – | 0.622
FT3469 [9], 12.3 nM | – | 0.625
FT3469 [9], 37 nM | – | 0.634
FT3469 [9], 111.1 nM | – | 0.653
FT3469 [9], 333.3 nM | – | 0.629
FT3469 [9], 1000 nM | – | 0.446
FT3469 [9], 3000 nM | – | 0.464
